Experimental findings from ChEMBL document CHEMBL1275338, “Design, synthesis and bioevaluation of dihydropyrazolo[3,4-b]pyridine and benzo[4,5]imidazo[1,2-a]pyrimidine compounds as dual KSP and Aurora-A kinase inhibitors for anti-cancer agents” (Bioorg Med Chem, 2010) are described below.

The target of test [1] is T1, Kinesin-like protein KIF11 (Homo sapiens, UniProt P52732).
T1 sequence (P52732 whole entry): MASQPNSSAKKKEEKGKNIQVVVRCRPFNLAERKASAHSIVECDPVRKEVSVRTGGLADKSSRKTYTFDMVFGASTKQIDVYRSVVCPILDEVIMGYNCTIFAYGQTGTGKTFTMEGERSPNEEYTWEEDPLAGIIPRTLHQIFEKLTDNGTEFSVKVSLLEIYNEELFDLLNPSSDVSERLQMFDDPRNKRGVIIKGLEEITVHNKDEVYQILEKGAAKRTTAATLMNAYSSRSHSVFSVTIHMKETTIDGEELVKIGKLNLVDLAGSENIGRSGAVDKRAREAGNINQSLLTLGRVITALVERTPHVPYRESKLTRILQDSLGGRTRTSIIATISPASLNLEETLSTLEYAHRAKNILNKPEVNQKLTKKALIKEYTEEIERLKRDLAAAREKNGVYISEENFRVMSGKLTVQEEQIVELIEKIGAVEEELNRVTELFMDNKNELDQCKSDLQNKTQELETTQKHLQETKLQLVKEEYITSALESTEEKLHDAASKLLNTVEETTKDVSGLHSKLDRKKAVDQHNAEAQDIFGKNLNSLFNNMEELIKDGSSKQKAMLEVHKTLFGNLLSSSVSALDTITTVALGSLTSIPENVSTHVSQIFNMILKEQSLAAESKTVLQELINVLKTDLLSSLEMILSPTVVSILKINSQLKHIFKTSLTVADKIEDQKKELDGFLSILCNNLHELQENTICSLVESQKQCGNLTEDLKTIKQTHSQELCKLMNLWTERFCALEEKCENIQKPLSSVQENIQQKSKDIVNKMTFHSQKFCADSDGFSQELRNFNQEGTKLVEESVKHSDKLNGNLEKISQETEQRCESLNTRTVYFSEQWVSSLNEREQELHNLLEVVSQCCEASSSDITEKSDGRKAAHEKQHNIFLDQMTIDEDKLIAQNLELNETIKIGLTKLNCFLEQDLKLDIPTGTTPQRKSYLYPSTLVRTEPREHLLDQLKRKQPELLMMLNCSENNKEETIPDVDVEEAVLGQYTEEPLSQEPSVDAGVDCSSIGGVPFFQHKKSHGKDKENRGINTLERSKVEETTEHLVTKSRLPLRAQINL
Description: Inhibition of human Eg5 motor domain (residues 2-386) ATPase activity expressed in Escherichia coli assessed as release of inorganic phosphate after 30 mins.

For another test, the system named is A2780. The experiment in a line: cells. Particulars: Homo sapiens, A2780, 72 h.
The target of the next test is T2, Aurora kinase A (Homo sapiens, UniProt O14965).
T2 sequence (O14965 whole entry): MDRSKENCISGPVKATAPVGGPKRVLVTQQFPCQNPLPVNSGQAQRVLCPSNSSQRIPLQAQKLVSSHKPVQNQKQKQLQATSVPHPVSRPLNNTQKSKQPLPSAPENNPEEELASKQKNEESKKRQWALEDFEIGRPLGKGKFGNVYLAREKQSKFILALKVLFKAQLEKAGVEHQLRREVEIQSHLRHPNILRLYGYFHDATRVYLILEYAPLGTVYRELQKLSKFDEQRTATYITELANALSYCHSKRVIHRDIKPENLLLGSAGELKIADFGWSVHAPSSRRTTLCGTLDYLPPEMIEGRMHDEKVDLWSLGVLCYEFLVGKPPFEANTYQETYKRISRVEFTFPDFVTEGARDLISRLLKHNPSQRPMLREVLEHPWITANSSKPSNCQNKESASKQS
Description: Inhibition of human purified recombinant aurora-A kinase.

Test [2] has as its system HCT-116. The experiment in a line: cells. As to conditions: Homo sapiens, HCT-116, 72 h.
The next test deals with HepG2. The experiment in a line: cells. Particulars: Homo sapiens, HepG2, 72 h.
For test [3], the system named is HCT-116. The experiment in a line: Ratio of CPUYL064 IC50 to compound IC50 for human HCT116 cells.

pIC50: −log10 of the molar value.

Description for A2780: Cytotoxicity against human A2780 cells after 72 hrs by MTT assay
Description for HepG2: Cytotoxicity against human HepG2 cells after 72 hrs by MTT assay

For orientation: pIC50 means −log10 of the IC50, conventionally taken in molar units. With `CC1=C(C(=O)Nc2ccc(F)c(Cl)c2)C(c2ccccc2)c2c[nH]nc2N1` (configuration not stated), the pIC50 in test [1] was 6.77.

Take `CC1=C(C(=O)Nc2ccc(F)cc2)C(c2ccccc2)c2c[nH]nc2N1` (configuration not stated): in test [1], the pIC50 was 6.85.

With `COc1ccc(NC(=O)C2=C(C)Nc3n[nH]cc3C2c2cccs2)cc1` (configuration not stated), in test [1], the pIC50 is 8.60.

Regarding `CC1=C(C(=O)Nc2ccc([N+](=O)[O-])cc2)C(c2cccs2)c2c[nH]nc2N1` (configuration not stated), the negative logarithm of the IC50 (pIC50) in test [1] is 6.09.

With `CC1=C(C(=O)Nc2ccc(C(F)(F)F)cc2)C(c2cccs2)c2c[nH]nc2N1` (configuration not stated), the pIC50 in test [1] is 6.49.

For `COc1ccc(NC(=O)C2=C(C)Nc3n[nH]cc3C2c2ccco2)cc1` (configuration not stated), the negative-log IC50 (pIC50) in test [1] is 8.96.

Regarding `CC1=C(C(=O)Nc2ccc([N+](=O)[O-])cc2)C(c2ccco2)c2c[nH]nc2N1` (configuration not stated), in test [1], the negative-log IC50 (pIC50) was 5.56.

`CC1=C(C(=O)Nc2ccc(C(F)(F)F)cc2)C(c2ccco2)c2c[nH]nc2N1` (configuration not stated): the negative logarithm of the IC50 (pIC50) in test [1] is 5.97.

In the case of `CC1=C(C(=O)Nc2ccc(F)c(Cl)c2)C(c2ccco2)c2c[nH]nc2N1` (configuration not stated), the pIC50 in test [1] is 6.40.

With `CC1=C(C(=O)Nc2ccc(F)cc2)C(c2ccco2)c2c[nH]nc2N1` (configuration not stated), the pIC50 in test [1] is 4.98.

On to `COc1ccc(NC(=O)C2=C(C)Nc3nc4ccccc4n3C2c2ccco2)cc1` (configuration not stated), for which the pIC50 in test [1] was 5.61; in the test on A2780 it was 5.03; at Aurora kinase A, 5.12; with HCT-116 [2] it was 5.06; in the test with HepG2, 5.30.

Take `CC1=C(C(=O)Nc2ccc([N+](=O)[O-])cc2)C(c2ccco2)n2c(nc3ccccc32)N1` (configuration not stated): the pIC50 in test [1] is 4.68; in the test on A2780, 5.52; at Aurora kinase A, 5.52; in the test on HCT-116 [2], 4.94; in the test with HepG2, 4.87.

As to `CC1=C(C(=O)Nc2ccc(C(F)(F)F)cc2)C(c2ccco2)n2c(nc3ccccc32)N1` (configuration not stated), the pIC50 in test [1] was 5.48; on Aurora kinase A it was 5.88; in the test with HCT-116 [2], < 4.30.

Regarding `CC1=C(C(=O)Nc2ccc(F)c(Cl)c2)C(c2ccco2)n2c(nc3ccccc32)N1` (configuration not stated), the negative-log IC50 (pIC50) in test [1] was 6.02; in the test with A2780, < 4.30; at Aurora kinase A, 5.24; in the test with HCT-116 [2] it was 4.96; with HepG2 it was 4.59.

On to `CC1=C(C(=O)Nc2ccc(F)cc2)C(c2ccco2)n2c(nc3ccccc32)N1` (configuration not stated), for which the negative logarithm of the IC50 (pIC50) is 5.25 in test [1]; < 4.30 in the test on A2780; 5.21 at Aurora kinase A; 5.30 in the test with HCT-116 [2]; 5.13 with HepG2. Besides, the “Ratio IC50” value in the test on HCT-116 [3] was 2.5.

Turning to `CC1=C(C(=O)Nc2ccc(Cl)cc2)C(c2ccccc2)C2=C(CC(C)(C)CC2=O)N1` (configuration not stated), in test [1], the pIC50 was 6.74.

On to `CC1=C(C(=O)Nc2ccc(F)c(Cl)c2)C(c2cccs2)c2c[nH]nc2N1` (configuration not stated), for which the negative-log IC50 (pIC50) in test [1] was 6.36.

For the compound `COc1ccc(NC(=O)C2=C(C)Nc3n[nH]cc3C2c2ccccc2)cc1` (configuration not stated), the pIC50 in test [1] was 5.55.

Consider `CC1=C(C(=O)Nc2ccc([N+](=O)[O-])cc2)C(c2ccccc2)c2c[nH]nc2N1` (configuration not stated), for which the pIC50 in test [1] is 6.70.

As to `CC1=C(C(=O)Nc2ccc(C(F)(F)F)cc2)C(c2ccccc2)c2c[nH]nc2N1` (configuration not stated), the negative-log IC50 (pIC50) in test [1] was 6.40.

For `CN(C)c1ccc(-c2nc3cc(Cl)cnc3[nH]2)cc1`, the negative logarithm of the IC50 (pIC50) is 4.40 in test [1]; 5.37 in the test with A2780; 5.30 on Aurora kinase A; 5.33 in the test with HCT-116 [2]; 5.23 in the test with HepG2.

As for `CCC(c1nc2cc(Cl)ccc2c(=O)n1Cc1ccccc1)N(CCCN(C)C)C(=O)c1ccc(Br)cc1` (configuration not stated) [CK0106023], the pIC50 in test [1] was 7.54; in the test with A2780, 5.52; on Aurora kinase A, < 4.30; with HCT-116 [2], 6.03; in the test with HepG2 it was 5.68.

Regarding `CCOC(=O)C1=C(C)NC(=S)NC1c1cccc(O)c1` (configuration not stated) [MONASTROL], the figures for the pIC50 (in test [1]; on Aurora kinase A; in the test on HCT-116 [2]) were 5.26, < 4.30 and < 4.30, respectively.
